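Assay format: 96-well plates, 48-hour exposure. The concentration for 50% growth inhibition is given as GI50.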 The source made the active and inactive calls. Rule as the data show it: active = GI50 up to about 1.1 µM and inactive = higher.
Assays:
Assay in all cases: NCI-60 cell line screen, 48 h
HOP-62 = test system: HOP-62
SK-MEL-2 = test system: SK-MEL-2
NCI-H23 = test system: NCI-H23
HT-29 = test system: HT-29
CAKI-1 = test system: CAKI-1
LOX IMVI = test system: LOX IMVI
HCC 2998 = test system: HCC 2998
HCT-15 = test system: HCT-15
SF-539 = test system: SF-539
SNB-75 = test system: SNB-75
Malme-3M = test system: Malme-3M
K562 = test system: K562
XF498 = test system: XF498
NCI-H522 = test system: NCI-H522
UACC-62 = test system: UACC-62
786-0 = test system: 786-0
SNB-78 = test system: SNB-78
OVCAR-8 = test system: OVCAR-8
NCI-H226 = test system: NCI-H226
DMS-273 = test system: DMS-273
U-251 = test system: U-251
SW-620 = test system: SW-620
OVCAR-3 = test system: OVCAR-3
M14 = test system: M14
OVCAR-5 = test system: OVCAR-5
RXF 393 = test system: RXF 393
RXF 631 = test system: RXF 631
HCT-116 = test system: HCT-116
DLD-1 = test system: DLD-1
KM-20L2 = test system: KM-20L2
SN12C = test system: SN12C
DMS-114 = test system: DMS-114
ACHN = test system: ACHN
COLO 205 = test system: COLO 205
KM12 = test system: KM12
A498 = test system: A498
LXFL 529 = test system: LXFL 529
SK-MEL-28 = test system: SK-MEL-28
SF-295 = test system: SF-295
SR = test system: SR
HOP-18 = test system: HOP-18
IGROV-1 = test system: IGROV-1
EKVX = test system: EKVX
OVCAR-4 = test system: OVCAR-4
MOLT-4 = test system: MOLT-4
SF-268 = test system: SF-268
UACC-257 = test system: UACC-257
SK-MEL-5 = test system: SK-MEL-5
NCI-H460 = test system: NCI-H460
RPMI-8226 = test system: RPMI-8226
SNB-19 = test system: SNB-19
A549 = test system: A549
UO-31 = test system: UO-31
TK-10 = test system: TK-10

For `CO[C@@]1(c2ccccc2)O[C@H]2OCCC2[C@H]1c1ccc(Cl)cc1` (some centres undefined), the GI50 (HOP-62) was 40.8 µM (inactive), the GI50 (SK-MEL-2) was 31.8 µM (inactive) and the GI50 (NCI-H23) was 30.4 µM (inactive). The GI50 (HT-29) was 20.3 µM (inactive), the GI50 (CAKI-1) was 28.8 µM (inactive) and the GI50 (LOX IMVI) was 32.4 µM (inactive). For the same compound, the GI50 (HCC 2998) was 35.3 µM (inactive), the GI50 (HCT-15) was 36.1 µM and the GI50 (SF-539) was 51.6 µM (inactive). The GI50 (SNB-75) was 28.8 µM (inactive), the GI50 (Malme-3M) was 28.5 µM (inactive) and the GI50 (K562) was 29.9 µM (inactive). For the same compound, the GI50 (XF498) was 25 µM (inactive), the GI50 (NCI-H522) was 16.4 µM (inactive) and the GI50 (UACC-62) was 34.2 µM (inactive). The GI50 (786-0) was 32 µM (inactive), the GI50 (SNB-78) was 45.1 µM (inactive) and the GI50 (OVCAR-8) was 33.7 µM (inactive). The GI50 (NCI-H226) was 33.4 µM (inactive), the GI50 (DMS-273) was 39.5 µM (inactive) and the GI50 (U-251) was 28.2 µM (inactive). For the same compound, the GI50 (SW-620) was 32.7 µM (inactive), the GI50 (OVCAR-3) was 16.5 µM (inactive) and the GI50 (M14) was 37.6 µM (inactive). For the same compound, the GI50 (OVCAR-5) was 29.1 µM (inactive), the GI50 (RXF 393) was 17.7 µM (inactive) and the GI50 (RXF 631) was 29.4 µM (inactive). The GI50 (HCT-116) was 27.6 µM (inactive), the GI50 (DLD-1) was 37.7 µM (inactive) and the GI50 (KM-20L2) was 32.1 µM (inactive). The GI50 (SN12C) was 51.5 µM (inactive), the GI50 (DMS-114) was 31.8 µM (inactive) and the GI50 (ACHN) was 34 µM (inactive). The GI50 (COLO 205) was 20 µM (inactive), the GI50 (KM12) was 47 µM (inactive) and the GI50 (A498) was 25.5 µM (inactive). For the same compound, the GI50 (LXFL 529) was 27.9 µM (inactive), the GI50 (SK-MEL-28) was 63.8 µM (inactive) and the GI50 (SF-295) was 21.3 µM (inactive). For the same compound, the GI50 (SR) was 29 µM (inactive), the GI50 (HOP-18) was 22.9 µM (inactive) and the GI50 (IGROV-1) was 97.7 µM (inactive). The GI50 (EKVX) was 24.7 µM (inactive), the GI50 (OVCAR-4) was 26.6 µM (inactive) and the GI50 (MOLT-4) was 17.9 µM (inactive). The GI50 (SF-268) was 56.9 µM (inactive), the GI50 (UACC-257) was 22 µM (inactive) and the GI50 (SK-MEL-5) was 17 µM (inactive). For the same compound, the GI50 (NCI-H460) was 23.2 µM (inactive), the GI50 (RPMI-8226) was 34 µM (inactive) and the GI50 (SNB-19) was 40.1 µM (inactive). For the same compound, the GI50 (A549) was 32.7 µM (inactive), the GI50 (UO-31) was 25.4 µM (inactive) and the GI50 (TK-10) was 40.8 µM (inactive).

Source: ChEMBL document CHEMBL1201862, “PubChem BioAssay data set” (2004)
